Measured values: patent publication EP1435238A1, “Methods for treating apnea and apnea disorders using optically pure R (+) ondansetron” (Sepracor Inc., priority 1999, dated 2000)

Assay: Electrophysiological effects (EKG, QTc interval, cardiotoxicity) in dogs
Format: in vivo, mongrel dogs
Settings: for prolongation of QTc interval (comparison in words): among the animals tested; for QTc Interval: dogs, rising cumulative dose at 30 minute intervals; for dogs died / survived: during or shortly after the experiment, four dogs per treatment, cumulative doses up to 4.0 mg/kg
[1] = 4.0 mg/kg, N=4 except S(-) ondansetron N=3

Description: An investigation was conducted to determine the effect of racemic ondansetron and the R(+)- and S(-)- enanatiomers of ondansetron in causing cardiac arrhythmias (cardiotoxicity) resulting from a lengthening of the cardiac action potential.
The order of administration was randomized to ensure that each dog received only one treatment.

Row | Structure (SMILES) | prolongation of QTc interval (comparison in words) | cardiotoxicity (comparison in words) (conclusion from QTc and mortality data) | QTc Interval (1.0 mg/kg, N=4) [s] | QTc Interval (2.0 mg/kg, N=4) [s] | QTc Interval [1] [s] | dogs died / survived
1 | Cc1nccn1C[C@H]1CCc2c(c3ccccc3n2C)C1=O [R(+)-Ondansetron, R(+) ondansetron] | shortest | less cardiotoxicity than either S(-) ondansetron or racemic ondansetron | 0.39 ± 0.01 | 0.40 ± 0.01 | 0.41 ± 0.02 | survived
2 | Cc1nccn1C[C@@H]1CCc2c(c3ccccc3n2C)C1=O [S(-)-Ondansetron, S(-) ondansetron] | most prolonged |  | 0.43 ± 0.02 | 0.44 ± 0.04 | 0.44 ± 0.03 | 
3 | Cc1nccn1CC1CCc2c(c3ccccc3n2C)C1=O (racemic) [R,S-Ondansetron, ondansetron] | most prolonged |  | 0.41 ± 0.01 | 0.45 ± 0.01 | 0.47 ± 0.01 | survived
